Reference: patent US4709079A, “Polyprenyl compounds, process for the production thereof and medicines containing same” (priority 1981, dated 1987)
Where two headings read alike, the source gives them in different places.

Tests used:
[1] = tested on: carrageenan-induced edema; experiment: carrageenan-induced edema controlling test, sole edema method (Experiments 1 and 2); assay type: in vivo, male S.D. rats; details: for Control rate (carrageenan-induced edema): groups of 8 rats; for ED50: Rattus norvegicus, po, read-out: Median effective dose for carrageenan-induced edema ED50
Protocol: Effects of controlling carrageenan-induced edema were examined by the sole edema method, see Winter et al.; Pro. […] Exp. Biol. Med., 111, 544 (1962), wherein carrageenan was used as an inflaming agent and male S.D. rats weighing 150-180 g were used as the test animals (each group comprised 5 rats).
The test compound was dissolved in sesame oil and the solution was administered perorally to the rats 6 hours before the administration of the inflaming agent. The volumes of the hind leg soles were measured 3 hours after the administration of the inflaming agent. […] [formula] wherein a is the volume of the hind leg sole before the edema induction and b is the corresponding value after the edema induction. [formula] wherein c represents the average edema rate of the control group and d represents the edema rate of each animal to which the test compound was given.
Carrageenan-induced edema control rates were determined according to formula (2) in the same manner as in Experiment 1 except that each group comprised 8 rats.

[2] = tested on: adjuvant-induced arthritis; experiment: adjuvant-induced arthritis controlling test; assay type: in vivo, F-344 rats; details: po; for ED50: Rattus norvegicus, 456 h, read-out: Median effective dose for adjuvant-induced arthritis ED50
Protocol: Arthritis was induced in F-344 rates (6 weeks) (Japanese Charles Liver) according to the method of Winder, C. V., et al; Arthritis Rheum. 12, 472-482 (1969) and the controlling effects were examined. 0.05 ml. of a suspension (6 mg/ml) of Mycobacterium butyricum (Difco) in liquid paraffin was in]ected in the sole of the right leg of each rat to induce arthritis. […] The former was dissolved in sesame oil and the latter was suspended in acacia. The administration of the test compounds was started on the same day as the adjuvant injection. The test compounds were administered perorally every day for 19 days.

[3] = continuous peroral administration for one week; assay type: in vivo, SD rats; details: 50 mg/kg per day and 200 mg/kg per day continuously for one week
gastric membranes = experiment: effects on gastric membranes of normal rats (ulceration); assay type: in vivo, Wistar ST rats
Text: Four hours thereafter, the ulceration conditions in the gastric membranes were examined.

in vivo = details: rat, po, peroral, 20% solution in sesame oil
[4] = comparison value for Indomethacin; species, sex and source not given; cited from earlier work
[5] = tested on: cold restraint stress-induced ulcer, gastric membranes; experiment: worsening of cold restraint stress-induced ulcer; assay type: in vivo, Wistar rats
Protocol: Cold restraint stress was applied to Wistar rats (7 weeks old) by a conventional method. […] Two hours after the application of stress, the length of ulcer (ulcer index) in the gastric membranes was measured.

[6] = peroral, 6 hours before inflaming agent, measured 3 hours after, groups of 5 rats

CC(C)=CCCC(C)=CCCC(C)=CCCC(C)=CCOC(=O)Cc1ccccc1Nc1c(Cl)cccc1Cl [Compound A, 2-[(2,6-Dichlorophenyl)amino]phenylacetic acid 3,7,11,15-tetramethyl-2,6,10,14-hexadecatetraenyl ester]
Control rate (carrageenan-induced edema) ([1]; dose 18 mg/kg, peroral): 34%

CC(C)=CCCC(C)=CCCC(C)=CCOC(=O)C(C)c1ccc(CC(C)C)cc1 (stereo not shown) [Compound B, 2-(4-isobutylphenyl)propionic acid 3,7,11-trimethyl-2,6,10-dodecatrienyl ester]
Control rate (carrageenan-induced edema) ([1]; dose 60 mg/kg, peroral): 30%

COc1ccc2c(c1)c(CC(=O)OCC=C(C)CCC=C(C)CCC=C(C)C)c(C)n2C(=O)c1ccc(Cl)cc1 [Compound C, 1-(p-Chlorobenzoyl)-2-methyl-5-methoxy-3-indolylacetic acid 3,7,11-trimethyl-2,6,10-dodecatrienyl ester]
ED50 [1, 6]: 6.5 mg/kg | Control rate (carrageenan-induced edema) ([1]; dose 9 mg/kg, peroral): 40% | Control rate (carrageenan-induced edema) ([1]; dose 18 mg/kg, peroral): 42% | ED50 ([2]; peroral, every day for 19 days): 3.6 mg/kg | health problem [3]: no health problem was observed | Number of ulcerated rats (gastric membranes; dose 153 mg/kg, peroral, 4 hours, fasted normal rats): 0/5

COc1ccc2c(c1)c(CC(=O)OCC=C(C)CCC=C(C)CCC=C(C)CCC=C(C)C)c(C)n2C(=O)c1ccc(Cl)cc1 [Compound D, 1-(p-Chlorobenzoyl)-2-methyl-5-methoxy-3-indolylacetic acid 3,7,11,15-tetramethyl-2,6,10,14-hexadecatetraenyl ester]
Control rate (carrageenan-induced edema) ([1]; dose 9 mg/kg, peroral): 22% | Control rate (carrageenan-induced edema) ([1]; dose 18 mg/kg, peroral): 22% | LD50 (in vivo; female SD rats, read-out: LD50 female): 1530 to 3160 mg/kg | LD50 (in vivo; male SD rats, read-out: LD50 male): 2000 to 2520 mg/kg | health problem [3]: no health problem was observed

CC(=O)Oc1ccccc1C(=O)OCC=C(C)CCC=C(C)C [Compound E, Acetylsalicylic acid 3,7-dimethyl-2,6-octadienyl ester]
Control rate (carrageenan-induced edema) ([1]; dose 400 mg/kg, peroral): 52%

CC(C)Cc1ccc(C(C)C(=O)O)cc1 (stereo not shown) [Ibuprofen, reference compound]
ED50 [1, 6]: 7.7 mg/kg

COc1ccc2c(c1)c(CC(=O)O)c(C)n2C(=O)c1ccc(Cl)cc1 [Indomethacin]
LD50 [4]: 18 mg/kg | ED50 ([1]; 3 h): 2.9 mg/kg | Control rate (carrageenan-induced edema) ([1]; dose 9 mg/kg, peroral): 38% | ED50 [2]: 1.5 mg/kg | LD50/ED50 ratio in the adjuvant-induced arthritis test ([2]; rat, in vivo): 14-15 | Ulcer index (Mean ± S.E.), length of ulcer ([5]; dose 20.0 mg/kg, peroral, two hours after application of stress): 36.5 ± 7.3 | macroscopic observation of gastric ulcer ([5]; rat, in vivo): linear ulcer accompanied with copious bleeding was clearly recognized | stress-induced ulcer ([5]; rat, in vivo): increased significantly | Ulcer index (mean ± S.E.) (gastric membranes; dose 20 mg/kg, peroral, 4 hours, fasted normal rats): 18.0 ± 3.2 | Number of ulcerated rats (gastric membranes; rat, in vivo, 20 mg/kg): 5/5
